Experimental data as given in patent US5830885A, “Antiproliferative vitamin D3 hybrids” (The Johns Hopkins University, priority 1996, dated 1998).
“Also recorded” adds a separate entry of the source.

Columns and labels:
[1] = Solubility in organic solvents; assay type: physicochemical; details: methylene chloride, chloroform, methanol; for YA/YB also EtOAc, acetone
[2] = target: T1, calf thymus VDR (Bos taurus, UniProt Q28037); test: VDR binding assay, displacement of [^3 H]-1,25(OH)2 D3 from VDR; details: for Amount Bound (amount that results in 50% displacement of [^3 H]-1,25(OH)2 D3 from VDR): Table 3, calf thymus VDR
T1 construct: from the calf thymus VDR; from tissue; host or cells: calf thymus
T1 sequence (Q28037 1-426): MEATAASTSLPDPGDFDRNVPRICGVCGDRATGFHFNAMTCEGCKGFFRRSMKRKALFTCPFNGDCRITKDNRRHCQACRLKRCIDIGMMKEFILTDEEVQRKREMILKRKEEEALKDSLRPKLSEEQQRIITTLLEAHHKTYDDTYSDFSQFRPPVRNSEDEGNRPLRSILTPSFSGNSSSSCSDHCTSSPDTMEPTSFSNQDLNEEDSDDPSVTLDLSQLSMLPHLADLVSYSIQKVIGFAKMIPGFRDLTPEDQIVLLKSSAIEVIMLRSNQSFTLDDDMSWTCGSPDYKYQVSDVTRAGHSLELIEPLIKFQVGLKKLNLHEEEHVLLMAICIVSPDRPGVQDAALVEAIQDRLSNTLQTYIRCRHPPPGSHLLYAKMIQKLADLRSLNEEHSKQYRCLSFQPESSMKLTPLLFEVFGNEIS
Method: The VDR binding assay was performed according to the procedure of Reinhardt, T. A., Horst, R. L., Orf, J. W., Hollis, B. W., J. Clin. Endocrin. Metab., 58: 91-98 (1984), the entire contents of which are hereby incorporated herein by reference.

[3] = system: keratinocyte; test: Dose-response effects on keratinocyte proliferation (FIGS. 3, 4, 9, 10); assay type: cell-based; details: cell numbers at 0 and 96 hours
Method: N0 represents the number of cells at zero hours and N1 represents the number of cells at 96 hours.

[4] = system: MDA 468 cells; test: Thymidine incorporation by MDA 468 human breast cancer cells; assay type: cell-based; details: FIGS. 6A and 6B
Text: (§1) FIGS. 6A and 6B show a comparison of the effects of 1,25(OH)2 D3 (filled squares), YA (filled circles) and YB (filled triangles) on thymidine incorporation by human breast cancer cell lines MDA 468 and SKBr 3.

[5] = system: cell differentiation; test: Induction of differentiation (ratings of Table 2); assay type: cell-based; details: for differentiation inducing activity: compared with calcitriol
[6] = system: U 937 cancer cells; test: Induction of cell differentiation in U 937 cancer cells (Table 5); assay type: cell-based, human
[7] = system: U 937 cancer cells; test: Viability of U 937 cancer cells (Table 5); assay type: cell-based; details: Homo sapiens, at 10^-7 M, read-out: Viability
[8] = system: U 937 cancer cells; test: Inhibition of cell proliferation in U 937 cancer cells (Table 5); assay type: cell-based, human; details: for IC50: Homo sapiens, U 937 cells; for inhibiting cell proliferation (in words): U 937, YB vs 1,25(OH)2 D3, YA up to 10^-7 M
[9] = system: calcium channels; test: Calcium channel opening assay; assay type: cell-based
[10] = system: cell proliferation; test: Anti-proliferative activity (summary statements); assay type: cell-based; details: compared with calcitriol or in general words
[11] = system: HL-60 cells; details: relative to 1,25D3; cited from earlier work
[12] = system: Human lymphoma cells U 937; details: relative to calcitriol = 1; cited from earlier work
[13] = system: Human lymphoma cells U 937; details: relative to calcitriol = 1; cited from earlier work; remark: listed apart in the source
[14] = system: Lewis rats; details: relative to calcitriol = 1; cited from earlier work
[15] = system: cell proliferation; test: Inhibition of proliferation (ratings of Table 2); assay type: cell-based; details: Table 2 rating
[16] = system: RWLeu-4 human CML cell line; test: Proliferation of RWLeu-4 human chronic myelogenous leukemic cells; assay type: cell-based; details: even at 50 nM; FIG. 5
Text: MCW-II5-y-A is compound YA and MCW-II5-y-B is compound YB.

[17] = system: human breast cancer cell lines MDA 468 and SKBr 3; test: Thymidine incorporation by human breast cancer cell lines; assay type: cell-based; details: human breast cancer cells; FIGS. 6A and 6B
Text: as §1

SMILES | solubility in organic solvents [1] | Amount Bound (amount that results in 50% displacement of [^3 H]-1,25(OH)2 D3 from VDR) [2] | effect on keratinocyte proliferation [3] | differentiation inducing activity [5] | viability at 0.1 µM [7] | IC50 [8] | inhibiting cell proliferation (in words) [8] | Average peak shift compared to control ([9]; 0.05 nM) | Average peak shift compared to control ([9]; 0.5 nM) | Average peak shift compared to control ([9]; 5 nM) | Average peak shift compared to control ([9]; 50 nM) | further results
C=C1/C(=C\C=C2/CCC[C@]3(C)[C@@H]([C@@H](C)OCCCC(O)(CC)CC)CC[C@@H]23)C[C@@H](O)C[C@@H]1CO [YA, 22-oxa-1-(hydroxymethyl)-26-(hydroxydiethyl) vitamin D3] | sparingly soluble | 2.2 µg | not effective for inhibition of proliferation | relatively ineffective in inducing differentiation | 99% | > 100 nM | ineffective | 1.0 ± 0.1 mV | 10.8 ± 1.5 mV | 16.1 ± 4.1 mV | 18.6 ± 3.3 mV | VDR binding (in words) [2]: even weaker binding for VDR than YB; also recorded: low VDR binding; inhibition of growth (suppression of thymidine incorporation) [4]: appears to have no effect; inducing cell differentiation (in words) ([6]; at 10^-7 M): inactive; anti-proliferative activity [10]: relatively ineffective in inducing differentiation or inhibiting proliferation
C=C1/C(=C\C=C2/CCC[C@]3(C)[C@@H]([C@@H](C)OCCCC(O)(CC)CC)CC[C@@H]23)C[C@@H](O)C[C@@H]1O [KH-1060] |  |  |  |  |  |  |  |  |  |  |  | times as effective as 1,25D3 in the induction of leukemic cell (HL-60) differentiation [11]: 133 times; Relative Potency, Induction of Differentiation [12]: 100,000; Relative Potency, Inhibition of Proliferation [13]: 31,000; Relative Potency, Calcemic Effects [14]: 1.3
C=C1/C(=C\C=C2/CCC[C@]3(C)[C@@H]([C@@H](C)OCCCC(O)(CC)CC)CC[C@@H]23)C[C@H](O)C[C@H]1CO [YB, 22-oxa-1-(hydroxymethyl)-26-(hydroxydiethyl) vitamin D3] | sparingly soluble | 0.0295 µg | comparable to that of calcitriol | comparable to that of calcitriol | 99% | 60 nM | about one third as active | 3.6 ± 2.2 mV | 13.2 ± 2.8 mV | 16.6 ± 2.8 mV | 18.4 ± 2.1 mV | Inhibition of Proliferation (rating) [15]: 1; times less strongly bound to VDR than 1,25(OH)2 D3 ([2]; relative to 1,25(OH)2 D3): about 1300 times; Induction of Differentiation (rating) ([5]; Table 2 rating): 1; anti-proliferative effect on RWLeu-4 cells [16]: comparable to or slightly greater than that of calcitriol; inducing cell differentiation (in words) ([6]; at a concentration of 10^-8 M): effective in inducing cell differentiation; inhibition of growth (suppression of thymidine incorporation) [17]: very comparable to calcitriol
